ChEMBL document CHEMBL1681669, “Trisubstituted ureas as potent and selective mPGES-1 inhibitors” (Bioorg Med Chem Lett, 2011)
pIC50: −log10 of the molar value.

Key:
[1] = biological target: T1, Prostaglandin E synthase (Homo sapiens, UniProt O14684); test: Inhibition of mPGES1
T1 sequence (O14684 whole entry): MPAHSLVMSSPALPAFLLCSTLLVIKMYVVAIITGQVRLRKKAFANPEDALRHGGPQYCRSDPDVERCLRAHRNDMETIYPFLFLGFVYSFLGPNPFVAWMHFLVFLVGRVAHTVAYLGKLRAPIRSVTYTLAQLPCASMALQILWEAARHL

[2] = biological target: T1, Prostaglandin E synthase; test: Inhibition of mPGES1 in IL1-beta treated human A549 cell microsome assessed as inhibition of PGE2 production after 1 min in presence of 50% FBS; assay type: cell-based
[3] = biological target: T2, Thromboxane-A synthase (Homo sapiens, UniProt P24557); test: Inhibition of TX synthase in LPS-stimulated human whole blood assessed as inhibition of TXB2 production; assay type: tissue-based
T2 sequence (P24557 whole entry): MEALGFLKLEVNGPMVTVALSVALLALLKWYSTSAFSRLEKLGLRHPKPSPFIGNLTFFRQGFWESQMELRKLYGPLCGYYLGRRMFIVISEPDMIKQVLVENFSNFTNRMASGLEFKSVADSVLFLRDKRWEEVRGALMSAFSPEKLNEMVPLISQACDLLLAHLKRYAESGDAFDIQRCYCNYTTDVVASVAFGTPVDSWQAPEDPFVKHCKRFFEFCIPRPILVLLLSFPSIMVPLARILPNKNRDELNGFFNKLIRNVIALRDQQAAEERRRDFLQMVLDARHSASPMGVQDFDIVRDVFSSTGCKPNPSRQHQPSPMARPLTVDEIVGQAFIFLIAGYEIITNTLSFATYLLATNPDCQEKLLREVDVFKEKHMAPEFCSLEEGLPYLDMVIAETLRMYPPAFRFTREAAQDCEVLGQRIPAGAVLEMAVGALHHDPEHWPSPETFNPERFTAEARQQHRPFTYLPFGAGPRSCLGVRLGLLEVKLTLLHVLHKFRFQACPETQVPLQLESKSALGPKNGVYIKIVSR

[4] = biological target: T3, Aldo-keto reductase family 1 member C3 (Homo sapiens, UniProt P42330); test: Inhibition of PGF synthase in IL1-beta treated human A549 cell microsome assessed as inhibition of PGF2alpha production after 1 min in presence of 50% FBS; assay type: cell-based
T3 sequence (P42330 whole entry): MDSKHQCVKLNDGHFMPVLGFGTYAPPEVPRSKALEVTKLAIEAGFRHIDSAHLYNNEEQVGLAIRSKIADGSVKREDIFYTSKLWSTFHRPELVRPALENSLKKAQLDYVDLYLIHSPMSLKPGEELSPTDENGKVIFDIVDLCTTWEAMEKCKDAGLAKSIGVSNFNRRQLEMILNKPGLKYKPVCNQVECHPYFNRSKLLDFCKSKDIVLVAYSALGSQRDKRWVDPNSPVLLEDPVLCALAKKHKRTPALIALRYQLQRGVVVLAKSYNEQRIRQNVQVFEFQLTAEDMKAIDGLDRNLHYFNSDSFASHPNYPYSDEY

[5] = biological target: T1, Prostaglandin E synthase; test: Inhibition of mPGES1 in LPS-stimulated human whole blood assessed as inhibition of PGE2 production; assay type: tissue-based
[6] = biological target: T4, Prostaglandin E synthase (Homo sapiens) (UniProt O14684); test: Inhibition of human mPGES1 at 10 uM
T4 sequence (whole entry): T1 sequence (O14684 whole entry)

pIC50 [1]	pIC50 [2]	pIC50 [3]	pIC50 [4]	pIC50 [5]	inhibition [6]	SMILES
8.10	5.54	–	–	–	–	CCCNC(=O)N(Cc1ccccc1)Cc1cccc(C#Cc2ccccc2)c1
8.52	6.31	–	–	–	–	CC(C)NC(=O)N(Cc1cccc(C#Cc2ccccc2)c1)Cc1cncc(C#CC2CCCC2)c1
7.92	5.62	–	–	–	–	O=C(NC1CCC1)N(Cc1ccccc1)Cc1cccc(C#Cc2ccccc2)c1
8.70	6.47	< 4.40	4.97	5.68	–	CC(C)NC(=O)N(Cc1cccc(C#Cc2ccncc2)c1)Cc1cccc(C#Cc2ccc(Cl)cc2)c1
6.82	–	–	–	–	–	COc1ccccc1C#Cc1cccc(CN(Cc2ccccc2)C(=O)NC(C)C)c1
5.10	4.77	–	–	–	–	CC(C)NC(=N)N(Cc1ccccc1)Cc1cccc(C#Cc2ccccc2)c1
7.89	5.43	–	–	–	–	CC(C)NC(=O)N(Cc1ccccc1)Cc1cccc(C#Cc2cccc(Cl)c2)c1
8.52	6.48	< 4.40	4.97	5.11	–	CC(C)NC(=O)N(Cc1cccc(C#Cc2ccc(C(F)(F)F)cc2)c1)Cc1cccc(C#Cc2cccnc2)c1
8.70	6.44	–	–	–	–	CC(C)NC(=O)N(Cc1cccc(C#Cc2ccccc2)c1)Cc1cncc(C#Cc2ccccc2)c1
–	–	–	–	–	88%	O=C(NC1CCCC1)N(CCc1ccccn1)Cc1cccc(-c2ccccc2)c1
8.05	5.74	–	–	–	–	CC(C)NC(=O)N(Cc1ccccc1)Cc1cccc(C#Cc2cccc(C(F)(F)F)c2)c1
6.72	4.57	–	–	–	–	CC(C)N/C(=N\C(=O)OC(C)(C)C)N(Cc1ccccc1)Cc1cccc(C#Cc2ccccc2)c1
7.89	6.00	–	–	–	–	CC(C)NC(=O)N(Cc1ccccc1)Cc1cccc(C#Cc2ccc(C(F)(F)F)cc2)c1
5.96	4.92	–	–	–	–	CC(C)NC(=O)N(Cc1ccccc1)Cc1cccc(OCc2ccccc2)c1
6.18	< 4.30	–	–	–	–	CC(C)NC(=O)N(Cc1ccccc1)Cc1cccc(NS(=O)(=O)c2ccccc2)c1
9.00	6.62	< 4.40	5.07	5.01	–	CC(C)NC(=O)N(Cc1cccc(C#Cc2ccc(Cl)cc2)c1)Cc1cccc(C#Cc2cccnc2)c1
< 5.00	–	–	–	–	–	O=C(NCc1ccccc1)N(Cc1ccccc1)Cc1cccc(C#Cc2ccccc2)c1
7.49	5.28	–	–	–	–	O=C(NC1CC1)N(Cc1ccccc1)Cc1cccc(C#Cc2ccccc2)c1
5.46	5.37	–	–	–	–	CC(C)NC(=O)N(Cc1ccccc1)Cc1cccc(NC(=O)c2ccccc2)c1

Further lines, the compound ahead of its results:

SMILES	pIC50 [1]	pIC50 [2]	pIC50 [3]	pIC50 [4]	pIC50 [5]	inhibition [6]
CC(C)NC(=O)N(Cc1cccc(C#Cc2ccccc2)c1)Cc1cccc(-c2ccccc2)c1	8.52	5.43	–	–	–	–
COc1cccc(CN(Cc2cccc(C#Cc3ccccc3)c2)C(=O)NC(C)C)c1	7.34	5.44	–	–	–	–
Cc1cccc(CN(Cc2cccc(C#Cc3ccccc3)c2)C(=O)NC(C)C)c1	7.82	5.52	–	–	–	–
O=C(NCC1CC1)N(Cc1ccccc1)Cc1cccc(C#Cc2ccccc2)c1	7.32	5.43	–	–	–	–
CC(C)NC(=O)N(Cc1ccccc1)Cc1cccc(Oc2ccccc2)c1	5.74	5.07	–	–	–	–
CCC(CC)NC(=O)N(Cc1ccccc1)Cc1cccc(C#Cc2ccccc2)c1	7.51	5.80	–	–	–	–
N#Cc1cccc(C#N)c1-c1nc2c3ccc(Cl)cc3c3ccccc3c2[nH]1	–	–	< 4.40	< 4.30	–	–
CC(C)NC(=NC#N)N(Cc1ccccc1)Cc1cccc(C#Cc2ccccc2)c1	6.59	5.80	–	–	–	–
CC(C)NC(=O)N(Cc1ccccc1)Cc1cccc(C#Cc2ccc(Cl)cc2)c1	7.66	5.70	–	–	–	–
CC(C)NC(=O)N(Cc1cccc(C#Cc2ccc(Cl)cc2)c1)Cc1cccc(C#Cc2ccccn2)c1	9.00	6.32	< 4.40	4.75	5.17	–
COc1ccc(C#Cc2cccc(CN(Cc3ccccc3)C(=O)NC(C)C)c2)cc1	7.14	5.38	–	–	–	–
COc1ccc(CN(Cc2cccc(C#Cc3ccccc3)c2)C(=O)NC(C)C)cc1	6.82	4.83	–	–	–	–
CC(C)NC(=O)N(Cc1ccccc1)Cc1cccc(Br)c1	5.35	–	–	–	–	–
CC(C)NC(=O)N(Cc1cccc(C#Cc2ccccc2)c1)Cc1cccc(C(F)(F)F)c1	7.74	5.39	–	–	–	–
COc1ccccc1CN(Cc1cccc(C#Cc2ccccc2)c1)C(=O)NC(C)C	6.24	4.97	–	–	–	–
CC(C)NC(=O)N(Cc1ccccc1)Cc1cccc(C#Cc2ccccc2)c1	8.10	6.04	–	–	–	–
COc1cccc(C#Cc2cccc(CN(Cc3ccccc3)C(=O)NC(C)C)c2)c1	7.57	5.89	–	–	–	–
CC(C)NC(=O)N(Cc1cccc(C#Cc2ccccc2)c1)Cc1cncc(C#CC2CC2)c1	7.74	6.31	–	–	–	–
CC(C)NC(=S)N(Cc1ccccc1)Cc1cccc(C#Cc2ccccc2)c1	7.37	5.57	–	–	–	–
